# Test results taken from patent US20090263492A1, “Diagnostic Methods and Genetic Markers for Alzheimer Disease” (priority 2006, published 2009).
# Entries after “also recorded” stand apart in the source; their conditions may differ.
# Tests used:
# Format in all cases: cell-based, human
# [1] = system: Mgat3 transcription; assay: qPCR of Mgat3 transcription in PBMC's from AD patients cultured with Aβ and test agent
# Protocol: (§1) RNA Isolation and qPCR. RNA was isolated as above from PBMC's (10 million) of each subject, which were cultured overnight with or without Aβ (2 μg/ml); and cDNA was synthesized using the iSCRIPT cDNA Synthesis Kit. The expression levels of the genes of interest were tested by qPCR on a real-time PCR detector and normalized to the levels of the housekeeping gene 36B4 with the following primers: […]
# (§2) SYBR Green reactions were carried out with the IQ SYBR Green mix. Reactions were run on a Continuous Fluorescence detector and analyzed. The relative quantities of the gene tested per sample were calculated against 36B4 using the ΔΔC(T) formula as previously described. The results are expressed as log [MGAT (or TLR) RNA (with Aβ)/MGAT (or TLR) RNA (without Aβ)] for each specimen. For evaluation of curcumins or curcumin analogs the above assay was used. Curcumins (0.1 uM) were added to PBMC's from AD patients cultured overnight with ±Aβ as above. After 2 hours of incubation with the curcumin or analog, RNA was isolated and cDNA was synthesized as above. The expression levels of Mgat3 or TLR transcription was quantified and normalized to the levels of housekeeping genes and compared to cells treated with curcumin or analogs with or without Aβ vs. untreated cells. The amount of Mgat3 (or TLR) RNA with Aβ and test agent/Mgat3 (or TLR) RNA withal alone)] for each cell preparation in the presence of test agent was determined. The ratio was used to determine the potency of the agent tested. Potent compounds had elevated ratios (>1.5) and were used to rank the relative activity of each test agent (Table 2).
# Curcumins. […] Crude natural product derived materials (i.e., curcuminoids) enhance phagocytosis of Aβ by macrophages from AD patients in approximately 50% of the cases examined. […] The material was purified to near homogeneity and identified by LCMS as bisdesmethoxycurcumin on the basis of its molecular ion and fragmentation pattern. To verify the biological activity of this minor constituent, bisdesmethoxycurcumin was chemically synthesized and tested in the phagocytosis and transcription assays described above (see Example 4). Compared with curcumin, both the bisdesmethoxycurcumin material isolated by chromatography and the chemically synthesized bisdesmethoxycurcumin material optimally stimulated phagocytosis at 0.1 μM. To determine whether functional improvement would be accompanied by biochemical changes, we tested transcriptional up-regulation of MGA T3 and TLR's in PBMC's from AD patients and controls in the presence of Aβ with bisdesmethoxycurcumin (0.1 μM) in comparison to Aβ alone. […] Thus, curcumins (0.1 uM) were added to PBMC's from AD patients cultured overnight with Aβ as above. After 2 hours of incubation, RNA was isolated and cDNA was synthesized. The expression levels of Mgat3 or TLR transcription was quantified and normalized to the levels of housekeeping genes and compared to cells treated with curcumin or analogs without Aβ. The amount of Mgat3 (or TLR) RNA with test agent and Aβ)/Mgat3 (or TLR) RNA (with Aβ alone)] for each cell preparation in the presence of test agent was determined. The ratio was used to determine the potency of the agent tested. Potent compounds had elevated ratios (>1.5) and were used to rank the relative activity (Table 2).
# Mgat3 and TLR transcription in cells from AD and control patients. We tested by qPCR Mgat3 and/0or TLR transcription in cells from AD patients and compared the results to those obtained from age-matched controls (Table 2). As discussed above, activation or up-regulation of macrophage Mgat3 or TLR's results in many functional outcomes, including the enhancement of […] and removal of Aβ, increased apoptosis, secretion of inflammatory cytokines, and other anti-AD antimicrobial activities. […] Thus, the ratio of Mgat3 or TLR transcription upon Aβ stimulation of AD versus control PBMCs provides an indicator and sensitive method to test the in vitro efficacy of drug candidates. […]
# [2] = system: macrophages of AD patients; assay: Phagocytosis of FITC-amyloid-beta (1-42) by macrophages of AD patients
# Excerpt: Peripheral blood mononuclear cells (PBMC's) and macrophages. AD patients were recruited at the time of enrollment in a double-blind study of curcumin Complex 3 in progress at UCLA. The diagnostic criteria for AD satisfied the National Institute of Neurological and Communicative Disorders and the AD and Related Disorders Association criteria for probable Alzheimer's disease. Normal age-matched control subjects were recruited. PBMC's were isolated by the Ficoll Hypaque gradient technique from venous blood. To prepare macrophage slide cultures, 50,000 PBMC's were cultured in each well of an 8-chamber polystyrene vessel glass slide in Iscove's medium with 10% autologous serum until differentiated into adherent macrophages (7-14 days).
# Phagocytosis assay and confocal microscopy. Macrophages were exposed to FITC-amyloid-beta (1-42) (2 μg/ml) overnight, fixed with 4% paraformaldehyde, permeabilized with 0.1% Triton X-100, blocked with 1% BSA in PBS and stained with Rab 5 or EEA1 antibodies by indirect immunofluorescence; lysosomes were stained intravitally by the Lyso-Tracker probe; macrophages were stained using anti-CD68; neurons were stained using anti-NeuN. The preparations were examined using fluorescence and confocal microscopy.
# Ability of monocytes to clear Aβ in the brain. Co-culture of freshly isolated monocytes with sections of AD frontal lobe to test the ability of monocytes to clear Aβ in the brain was done. One third of control monocytes became saturated with Aβ in 2 days and 100% in 4 days. […] Apoptosis of macrophages treated with Aβ was done with the SR-VAD-FMK polycaspase assay. Differentiated macrophages were treated with curcuminoids or analogs in the medium overnight and were then exposed to FITC-Aβ (1-42) to 2.5 μg/ml, incubated for 24 or 48 h and examined by fluorescence or confocal microscopy.
# Curcuminoids reverse defective phagocytosis of amyloid-beta by macrophages of individual AD patients. […] Macrophages were visualized using anti-CD68 or fluorescent phalloidin with a fluorescence microscope.
# [3] = system: Toll-like receptor (TLR) RNA's (TLR1-10); assay: qPCR of TLR transcription in PBMC's from AD patients cultured with Aβ and test agent; conditions: for up-regulation of TLR1-10 RNA: PBMCs from one AD patient (patient D, FIG. 1), Aβ plus agent overnight
# Protocol: 10 million PBMC's each of four AD patients (A, B, C, D) were treated overnight with no addition, Aβ (A, B, C, D; black bars) or with Aβ and bisdemethoxycurcumin (D, striped bar). Control subjects's (M, N, O) PBMC's were treated with no addition or Aβ (open bars). RNA was extracted and tested by qPCR, and the TLR ratio was determined as described in the Methods. The significance of differences between patients and controls (by Mann-Whitney test) are: TLR1 0.05; TLR2 0.05; TLR3 0.05; TLR4 0.08; TLR5 0.05; TLR6 0.077; TLR7 0.08; TLR8 0.05; TLR9 0.08; TLR10 0.05. The graphs show changes in receptors on 2-fold (log 2) scale.
# as §1
# as §2, with “Curcumins (0.1 uM) were added to PBMC's from AD patients cultured overnight with ±Aβ as above. After 2 hours of incubation with the curcumin or analog, RNA was isolated and cDNA was synthesized as above.” left out, “The ratio was used to determine the potency of the agent tested. Potent compounds had elevated ratios (>1.5) and were used to rank the relative activity of each test agent (Table 2).” left out
# Curcumins. […] The expression levels of Mgat3 or TLR transcription was quantified and normalized to the levels of housekeeping genes and compared to cells treated with curcumin or analogs without Aβ. […]
# [4] = system: TLR2, TLR3 and TLR4 on monocytes; assay: Flow cytometry of TLR expression on monocytes of PBMCs from an AD patient
# [5] = 0.1 μM, PBMC's from AD patients
smiles,measurement,setting,value
"O=C(C=Cc1ccc(O)cc1)C=C(O)C=Cc1ccc(O)cc1 [Compound 5a, 5-Hydroxy-1,7-bis-(4-hydroxy-phenyl)-hepta-1,4,6-trien-3-one]",transcription of MGAT3 with Aβ and agent in comparison to Aβ alone,[1]; [5],up-regulated in all four patients examined
same,fold induction at 0.1 µM,"[1]; Homo sapiens, curcumins 0.1 uM, PBMC's from AD patients cultured overnight with Aβ, 2 hours incubation, qPCR, read-out: Relative Activity: relative ratio of Mgat3 transcription in AD/Mgat3 transcription in control cells",1.5 to 2
same,relative Mgat3 ratios,[1]; repeat assays,3-5 fold
same,effect on Aβ phagocytosis/uptake by AD macrophages,"[2]; in vitro treatment during Aβ phagocytosis, fluorescence/confocal microscopy, listed as bisdemethoxycurcumin",enhanced the phagocytosis of Aβ by macrophages of AD patients; also recorded: considerable activity
same,concentration that optimally stimulated phagocytosis,"[2]; isolated and chemically synthesized material, compared with curcumin",0.1 µM
same,transcription of TLRs with Aβ and agent in comparison to Aβ alone,[3]; [5],up-regulated in all four patients examined
same,up-regulation of TLR1-10 RNA,[3]; listed as Bisdemethoxycurcumin,all 10 TLRs were up-regulated
same,up-regulation of TLR1-10 RNA,[3]; listed as bisdemethoxycurcumin,up-regulation
same,"expression of TLR2, TLR3 and TLR4 on monocytes",[4],increased expression
